Test results reported in paper PMC10591299, “Targeting SHP2 with an Active Site Inhibitor Blocks Signaling and Breast Cancer Cell Phenotypes” (ACS Bio & Med Chem Au, 2023).

Assays:
[1] = biological target: T1, SHP2 (Homo sapiens, UniProt Q06124); test: PTPase assay, GST-fusion PTP domain of SHP2, DiFMUP substrate; type: biochemical
T1 construct: the GST fusion of the PTP domains of SHP2, SHP1, and PTP1B were produced and purified as reported by us previously; GST; made in house
T1 sequence (Q06124 247-517 limits assumed): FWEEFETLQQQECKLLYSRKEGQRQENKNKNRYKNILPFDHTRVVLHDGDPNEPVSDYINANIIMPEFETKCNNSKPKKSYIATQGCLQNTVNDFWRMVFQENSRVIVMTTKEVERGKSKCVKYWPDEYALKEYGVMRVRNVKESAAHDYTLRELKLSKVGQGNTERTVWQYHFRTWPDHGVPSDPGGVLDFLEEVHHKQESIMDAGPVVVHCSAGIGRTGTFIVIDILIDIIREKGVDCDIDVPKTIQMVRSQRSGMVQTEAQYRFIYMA
Experimental: After completion of synthesis, both CNBCA and CNBBA were purified on silica gel, and purity was determined by HPLC. The purified compounds were then tested for their effect on the SHP2 enzyme activity and on the activity of the selected control PTPs (SHP1 and PTP1B) by the phosphotyrosyl phosphatase (PTPase) assay as described previously.[30],[31] First, the GST fusion of the PTP domains of SHP2, SHP1, and PTP1B were produced and purified as reported by us previously.[32] The reactions were performed in a buffer containing 10 mM Tris-HCl (pH 7.2), 100 mM NaCl, 1 mM EDTA, 1 mM dithiothreitol (DTT), and 0.01% Tween-20. Briefly, CNBCA or CNBBA was added first in a serial dilution ranging from 100 μM to 97 nM followed by the enzymes (SHP2, SHP1, or PTP1B) to a final concentration of 1 nM. After 5 min of incubation at room temperature, the reactions were started by adding the artificial substrate DiFMUP (6,8-difluoro-4-methylumbelliferyl phosphate) to a final concentration of 20 μM for SHP2, 35 μM for SHP1, and 10 μM for PTP1B in a reaction volume of 100 μL; variations in DiFMUP concentrations reflect the reported Km values for the respective PTPs.[33] The complete mixture was incubated at 37 °C for 20 min, and fluorescence intensity was measured by the Synergy 4 plate reader at the excitation and emission wavelengths of 360 and 460 nm, respectively. The half inhibitory concentration (IC50) value of each compound was calculated and plotted using Graphpad Prism software.
We used the PTPase assay described previously[30],[31] to evaluate the effect of the newly synthesized compounds on the enzymatic activity of SHP2, SHP1, and PTP1B. The PTP domains of the indicated proteins were prepared as reported by us recently.[32] The artificial PTP substrate DiFMUP (6,8-Difluoro-4-Methylumbelliferyl Phosphate) was purchased from Invitrogen. The purified proteins were dialyzed into a phosphatase buffer containing 10 mM Tris-HCl ([…]), 100 mM NaCl, 1.0 mM EDTA, 1.0 mM dithiothreitol (DTT), and 0.01% Tween-20. Briefly, the PTPase reactions were performed in 100 μL volume containing 1 nM enzyme, inhibitors in serial dilutions (12 nM to 100 μM), and DiFMUP to a final concentration of 20 μM for SHP2, 35 μM for SHP1, and 10 μM for PTP1B. Differences in DiFMUP concentrations reflect the reported Km values for each PTP.[37] The mixtures were incubated at 37 °C for 20 min and transferred to 96 well plates, and the fluorescence intensity was measured by a Synergy 4 plate reader at the excitation and emission wavelengths of 360 and 460 nm, respectively. Graphpad Prism software was used to calculate the IC50 values.

[2] = test system: MDA-MB468 cells; test: Cell growth in 2D culture, MDA-MB468; type: cell-based; settings: MDA-MB468, 500 nM, 72 h; vehicle treated cells grew to confluency
Experimental: Since SHP2 is essential for the growth and transformation of BC cells,[8],[9],[11] we determined the effect of SHP2 inhibition with CNBCA in 2D and 3D culture systems. For the effect on cell growth, BC cells (BT474 and MDA-MB468) were seeded in 2D culture and treated with a single concentration of CNBCA (500 nM), the concentration that provided a 50% inhibition of SHP2 mediated signaling in BT474 cells. Images were collected at the start and every 24 h for a total of 72 h (3 days). […] For effect on anchorage independent growth, approximately 10^6 cells were seeded in soft agar as described previously,[24] and treated with CNBCA at 500 nM concentration for 10 days with refeeding and adjustment of compound concentration. […] Finally, the effect of CNBCA on cancer stem cell properties was determined by the suspension assay, in which only cells with stem-like properties only can grow and form mammospheres.[7],[24],[36] Approximately 10^6 cells were seeded in nonadherent 6 cm plates and treated with CNBCA (500 nM) for 10 days with complementation of media and drug concentration.

[3] = test system: MDA-MB468 cells; test: Basal pAkt and pERK1/2 signaling by immunoblotting in MDA-MB468 cells; type: cell-based; settings: Homo sapiens, MDA-MB-468; MDA-MB468, 48 h treatment, band density pAkt and pERK1/2; read-out: IC50 for SHP2 mediated Akt and ERK1/2 activation
Experimental: Since SHP2 is an essential mediator of mitogenic and cell survival signaling in breast cancer cells, we determined the effect of CNBCA treatment on activation of ERK1/2 and Akt in the HER2-positive BT474 and in the triple-negative MDA-MB468 cell lines. Cells growing in 2D culture were treated with varying concentrations of CNBCA, ranging from 0.250 to 2.0 μM, for 48 h, and total cell lysates were analyzed by immunoblotting (IB) with antibodies that recognize the activated forms of ERK1/2 (pERK1/2) and Akt (pAkt).

[4] = biological target: T2, PTP1B (Homo sapiens, UniProt P18031); test: PTPase assay, GST-fusion PTP domain of PTP1B, DiFMUP substrate; type: biochemical
T2 construct: The GST fusion PTP domains of SHP1 and PTP1B were expressed and purified in a fashion similar to that of SHP2; GST; made in house
T2 sequence (P18031 3-277 limits assumed): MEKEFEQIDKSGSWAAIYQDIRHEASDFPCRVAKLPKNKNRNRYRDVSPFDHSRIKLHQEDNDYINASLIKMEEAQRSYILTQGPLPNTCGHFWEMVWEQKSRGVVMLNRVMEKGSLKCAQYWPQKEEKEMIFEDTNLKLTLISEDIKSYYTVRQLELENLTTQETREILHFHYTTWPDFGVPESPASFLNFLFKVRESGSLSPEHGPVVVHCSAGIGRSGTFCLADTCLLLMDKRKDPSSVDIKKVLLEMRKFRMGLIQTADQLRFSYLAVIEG
Experimental: After completion of synthesis, both CNBCA and CNBBA were purified on silica gel, and purity was determined by HPLC. The purified compounds were then tested for their effect on the SHP2 enzyme activity and on the activity of the selected control PTPs (SHP1 and PTP1B) by the phosphotyrosyl phosphatase (PTPase) assay as described previously.[30],[31] First, the GST fusion of the PTP domains of SHP2, SHP1, and PTP1B were produced and purified as reported by us previously.[32] The reactions were performed in a buffer containing 10 mM Tris-HCl (pH 7.2), 100 mM NaCl, 1 mM EDTA, 1 mM dithiothreitol (DTT), and 0.01% Tween-20. […] The complete mixture was incubated at 37 °C for 20 min, and fluorescence intensity was measured by the Synergy 4 plate reader at the excitation and emission wavelengths of 360 and 460 nm, respectively. The half inhibitory concentration (IC50) value of each compound was calculated and plotted using Graphpad Prism software. […]
We used the PTPase assay described previously[30],[31] to evaluate the effect of the newly synthesized compounds on the enzymatic activity of SHP2, SHP1, and PTP1B. […] The mixtures were incubated at 37 °C for 20 min and transferred to 96 well plates, and the fluorescence intensity was measured by a Synergy 4 plate reader at the excitation and emission wavelengths of 360 and 460 nm, respectively. […]

IC50 ([1]; PTP domain, 1 nM enzyme, 20 μM DiFMUP, 37 °C 20 min): 0.87 µM
selectivity ratio SHP2 (reference) ([1]; SHP2 IC50 as reference): 1.0
fold difference ([1]; SHP2 IC50 relative to CNBCA): 1.0 fold
IC50 [3]: ~1 µM
IC50 ([4]; PTP domain, 1 nM enzyme, 10 μM DiFMUP): 25 µM
selectivity ratio PTP1B versus SHP2 ([4]; SHP2 IC50 as reference): 28.73 fold
Compound: CCCCCCCCCOc1ccc(-c2ccc(C(=O)O)cc2)cc1CCCC(=O)O [CNBCA, 3′-(3-carboxypropyl)-4′-(nonyloxy)-[1,1′-biphenyl]-4-carboxylic acid]
cell growth in 2D culture [2]: half-confluent
